Converted amounts (≈) assume the structure as drawn.
Test system: SAUR 9218
Assay: MIC Test Method, standard agar dilution
Format: cell-based
Details: agar dilution, Mueller Hinton agar, incubated overnight at 35° C.; lowest concentration that inhibits visible growth; read-out: SAUR 9218 MIC
Protocol: The in vitro MiCs of test compounds were determined by a standard agar dilution method. A stock drug solution of each analog was prepared in the preferred solvent, usually DMSO:H2O (1:3). Serial 2-fold dilutions of each sample are made using 1.0 ml aliquots of sterile distil]ed water. To each 1.0 ml aliquot of drug was added 9 ml of molten Mueller Hinton agar medium. The drug-supplemented agar was mixed, poured into 15×100 mm petri dishes, and allowed to solidify and dry prior to inoculation.
Vials of each of the test organisms are maintained frozen in the vapor phase of a liquid nitrogen freezer. Test cultures are grown overnight at 35° C. on the medium appropriate for the organism. Colonies are harvested with a sterile swab, and cell suspensions are prepared in Trypticase Soy broth (TSB) to equal the turbidity of a 0.5 McFamland standard. A 1:20 dilution of each suspension was made in TSB. The plates containing the drug supplemented agar are inoculated with a 0.001 ml drop of the cell suspension using a Steers replicator, yielding approximately 10^4 to 10^5 cells per spot. The plates are incubated overnight at 35° C.
Following incubation the Minimum Inhibitory Concentration (MIC μg/ml), the lowest concentration of drug that inhibits visible growth of the organism, was read and recorded.

Compound	MIC [µg/mL]
CCCCCCOc1cnc(C(=O)Nc2ccc(C#N)cc2C(=O)O)cn1	0.125 (≈ 0.339 µM)
N#Cc1ccc(NC(=O)c2cc3cccc(NC(=O)Cc4cccc(C(F)(F)F)c4)c3[nH]2)c(C(=O)O)c1	0.25 (≈ 0.494 µM)
Cn1c(C(=O)Nc2ccc(C#N)cc2C(=O)O)cc2c(-c3ccccc3C(F)(F)F)cc(-c3ccccc3C(F)(F)F)c(NC(=O)Cc3ccccc3)c21	8 (≈ 10.8 µM)
N#Cc1ccc(NC(=O)c2ccc3ccccc3n2)c(C(=O)O)c1	8 (≈ 25.2 µM)
Cc1noc(C)c1-c1cncc(C(=O)Nc2ccc(C#N)cc2C(=O)O)c1	16 (≈ 44.2 µM)
CCCCCCCSc1ccc(C(=O)Nc2ccc(C#N)cc2C(=O)O)nn1	0.015 (≈ 0.0376 µM)
N#Cc1ccc(/C=C/c2cc(-c3ccccc3)on2)c(C(=O)O)c1	64 (≈ 202 µM)
Cn1c(/C=C/c2ccc(C#N)cc2C(=O)O)cc2ccccc21	64 (≈ 212 µM)
COc1ccc(CC(=O)Nc2cccc3cc(C(=O)Nc4ccc(C#N)cc4C(=O)O)[nH]c23)cc1	0.25 (≈ 0.534 µM)
COC(=O)CC(=O)Nc1cccc2cc(C(=O)Nc3ccc(C#N)cc3C(=O)O)[nH]c12	4 (≈ 9.52 µM)
N#Cc1ccc(-c2cnc(C(=O)Nc3ccc(C#N)cc3C(=O)O)o2)cc1	> 128
Cc1sc(C(=O)Nc2ccc(C#N)cc2C(=O)O)cc1S(=O)(=O)N1CCC(O)CC1	16 (≈ 35.6 µM)
N#Cc1ccc(NC(=O)c2cc3ccc(OCc4ccccc4)cc3[nH]2)c(C(=O)O)c1	0.125 (≈ 0.304 µM)
N#Cc1ccc(NC(=O)c2cc3cccc(NC(=O)c4cc5ccccc5[nH]4)c3[nH]2)c(C(=O)O)c1	0.25 (≈ 0.539 µM)
Cc1sc(C(=O)Nc2ccc(C#N)cc2C(=O)O)cc1S(=O)(=O)N1CCN(c2ncccn2)CC1	64 (≈ 125 µM)
Cn1c(C(=O)Nc2ccc(C#N)cc2C(=O)O)cc2cccc(OCC3CCCCC3)c21	0.25 (≈ 0.579 µM)
N#Cc1ccc(NC(=O)c2cc3cccc(NC(=O)Cc4cccc(Cl)c4)c3[nH]2)c(C(=O)O)c1	0.25 (≈ 0.529 µM)
N#Cc1ccc(NC(=O)c2noc3ccc(Br)cc23)c(C(=O)O)c1	0.125 (≈ 0.324 µM)
O=C(Nc1ccc(Cl)cc1C(=O)O)c1cc2cccc(S(=O)(=O)c3ccccc3)c2[nH]1	0.125 (≈ 0.275 µM)

Compound	MIC [µg/mL]
O=C(Nc1ccc(Br)cc1C(=O)O)c1cc(-c2ccccc2Cl)on1	0.125 (≈ 0.296 µM)
Cn1c(C(=O)Nc2ccc(I)cc2C(=O)O)cc2ccccc21	4 (≈ 9.52 µM)
N#Cc1ccc(NC(=O)c2cc3cccc(NC(=O)c4ccccc4O)c3[nH]2)c(C(=O)O)c1	1 (≈ 2.27 µM)
N#Cc1ccc(NC(=O)c2cc3cccc(NC(=O)c4ccc(Br)cc4)c3[nH]2)c(C(=O)O)c1	0.25 (≈ 0.497 µM)
N#Cc1ccc(NC(=O)c2noc3cc(OS(=O)(=O)Cc4ccccc4)ccc23)c(C(=O)O)c1	0.25 (≈ 0.524 µM)
N#Cc1ccc(NC(=S)c2cc(-c3ccccc3F)on2)c(C(=O)O)c1	0.5 (≈ 1.36 µM)
Cn1c(C(=O)Nc2ccc(C#N)cc2C(=O)O)cc2ccc(NS(=O)(=O)c3cccc4cccnc34)cc21	1 (≈ 1.9 µM)
Cc1cc(CC(=O)Nc2cccc3cc(C(=O)Nc4ccc(C#N)cc4C(=O)O)[nH]c23)on1	2 (≈ 4.51 µM)
COCCOCCCSc1ccc(C(=O)Nc2ccc(C#N)cc2C(=O)O)cn1	1 (≈ 2.41 µM)
CCCCSc1cnc(C(=O)Nc2ccc(Cl)cc2C(=O)O)cn1	0.5 (≈ 1.37 µM)
Cn1c(C(=O)Nc2ccc(C#N)cc2C(=O)O)cc2cccc(NS(=O)(=O)CS(C)(=O)=O)c21	2 (≈ 4.08 µM)
CCCSc1ccc(C(=O)Nc2ccc(C#N)cc2C(=O)O)cn1.Cl	0.5
Cc1c(S(=O)(=O)N2CCN(c3cccc(C(F)(F)F)c3)CC2)csc1C(=O)Nc1ccc(Br)cc1C(=O)O	16 (≈ 25.3 µM)
CCC(C)Sc1cnc(C(=O)Nc2ccc(Br)cc2C(=O)O)cn1 (centres unmarked)	0.5 (≈ 1.22 µM)
Cc1sc(C(=O)Nc2ccc(C#N)cc2C(=O)O)cc1S(=O)(=O)N1CCCC2CCCCC21 (centres unmarked)	32 (≈ 65.6 µM)
O=C(Nc1ccc(Cl)cc1C(=O)O)c1cc(-c2ccccc2C(F)(F)F)on1	1 (≈ 2.43 µM)
Cc1sc(C(=O)Nc2ccc(C#N)cc2C(=O)O)cc1S(=O)(=O)N(C)CCC#N	128 (≈ 296 µM)
Cc1cc(C(=O)Nc2ccc(C#N)cc2C(=O)O)no1	4 (≈ 14.7 µM)
CC(=O)Nc1ccc(-c2cc3onc(C(=O)Nc4ccc(Br)cc4C(=O)O)c3cc2NC(C)=O)c(C(F)(F)F)c1	0.0075 (≈ 0.0121 µM)

— US20040110802A1, “Antibacterial benzoic acid derivatives” (priority 2002, published 2004)
